How the values were obtained:
[1] = system: CCRF-CEM; assay: Growth inhibition of human CCRF-CEM cells incubated for 48 hrs by sulforhodamine B assay; assay type: functional
[2] = system: RPMI-8226; assay: Growth inhibition of human RPMI8226 cells incubated for 48 hrs by sulforhodamine B assay; assay type: functional; settings: RPMI-8226, 48 h
[3] = system: A549; assay: Growth inhibition of human A549/ATCC cells incubated for 48 hrs by sulforhodamine B assay; assay type: functional; settings: A549, 48 h
[4] = system: HOP-92; assay: Growth inhibition of human HOP92 cells incubated for 48 hrs by sulforhodamine B assay; assay type: functional; settings: HOP-92, 48 h
[5] = system: NCI-H226; assay: Growth inhibition of human NCI-H226 cells incubated for 48 hrs by sulforhodamine B assay; assay type: functional; settings: NCI-H226, 48 h
[6] = system: NCI-H23; assay: Growth inhibition of human NCI-H23 cells incubated for 48 hrs by sulforhodamine B assay; assay type: functional; settings: NCI-H23, 48 h
[7] = system: NCI-H322M; assay: Growth inhibition of human NCI-H322M cells incubated for 48 hrs by sulforhodamine B assay; assay type: functional
[8] = system: NCI-H460; assay: Growth inhibition of human NCI-H460 cells incubated for 48 hrs by sulforhodamine B assay; assay type: functional; settings: NCI-H460, 48 h
[9] = system: NCI-H522; assay: Growth inhibition of human NCI-H522 cells incubated for 48 hrs by sulforhodamine B assay; assay type: functional; settings: NCI-H522, 48 h
[10] = system: COLO 205; assay: Growth inhibition of human COLO205 cells incubated for 48 hrs by sulforhodamine B assay; assay type: functional; settings: COLO 205, 48 h
[11] = system: HCC 2998; assay: Growth inhibition of human HCC2998 cells incubated for 48 hrs by sulforhodamine B assay; assay type: functional; settings: HCC 2998, 48 h
[12] = system: HCT-116; assay: Growth inhibition of human HCT116 cells incubated for 48 hrs by sulforhodamine B assay; assay type: functional; settings: HCT-116, 48 h
[13] = system: HCT-15; assay: Growth inhibition of human HCT15 cells incubated for 48 hrs by sulforhodamine B assay; assay type: functional; settings: HCT-15, 48 h
[14] = system: HT-29; assay: Growth inhibition of human HT-29 cells incubated for 48 hrs by sulforhodamine B assay; assay type: functional; settings: HT-29, 48 h
[15] = system: KM12; assay: Growth inhibition of human KM12 cells incubated for 48 hrs by sulforhodamine B assay; assay type: functional; settings: KM12, 48 h
[16] = system: SW-620; assay: Growth inhibition of human SW620 cells incubated for 48 hrs by sulforhodamine B assay; assay type: functional; settings: SW-620, 48 h
[17] = system: SF-268; assay: Growth inhibition of human SF268 cells incubated for 48 hrs by sulforhodamine B assay; assay type: functional; settings: SF-268, 48 h
[18] = system: SF-295; assay: Growth inhibition of human SF295 cells incubated for 48 hrs by sulforhodamine B assay; assay type: functional; settings: SF-295, 48 h
[19] = system: SF-539; assay: Growth inhibition of human SF539 cells incubated for 48 hrs by sulforhodamine B assay; assay type: functional; settings: SF-539, 48 h
[20] = system: SNB-19; assay: Growth inhibition of human SNB19 cells incubated for 48 hrs by sulforhodamine B assay; assay type: functional; settings: SNB-19, 48 h
[21] = system: SNB-75; assay: Growth inhibition of human SNB75 cells incubated for 48 hrs by sulforhodamine B assay; assay type: functional; settings: SNB-75, 48 h
[22] = system: U-251; assay: Growth inhibition of human U251 cells incubated for 48 hrs by sulforhodamine B assay; assay type: functional; settings: U-251, 48 h
[23] = system: LOX IMVI; assay: Growth inhibition of human LOXIMVI cells incubated for 48 hrs by sulforhodamine B assay; assay type: functional
[24] = system: Malme-3M; assay: Growth inhibition of human MALME-3M cells incubated for 48 hrs by sulforhodamine B assay; assay type: functional
[25] = system: M14; assay: Growth inhibition of human M14 cells incubated for 48 hrs by sulforhodamine B assay; assay type: functional; settings: M14, 48 h
[26] = system: MDA-MB-435; assay: Growth inhibition of human MDA-MB-435 cells incubated for 48 hrs by sulforhodamine B assay; assay type: functional; settings: MDA-MB-435, 48 h
[27] = system: SK-MEL-2; assay: Growth inhibition of human SK-MEL-2 cells incubated for 48 hrs by sulforhodamine B assay; assay type: functional; settings: SK-MEL-2, 48 h
[28] = system: SK-MEL-28; assay: Growth inhibition of human SK-MEL-28 cells incubated for 48 hrs by sulforhodamine B assay; assay type: functional; settings: SK-MEL-28, 48 h
[29] = system: SK-MEL-5; assay: Growth inhibition of human SK-MEL-5 cells incubated for 48 hrs by sulforhodamine B assay; assay type: functional; settings: SK-MEL-5, 48 h
[30] = system: UACC-257; assay: Growth inhibition of human UACC257 cells incubated for 48 hrs by sulforhodamine B assay; assay type: functional; settings: UACC-257, 48 h
[31] = system: UACC-62; assay: Growth inhibition of human UACC62 cells incubated for 48 hrs by sulforhodamine B assay; assay type: functional; settings: UACC-62, 48 h
[32] = system: OVCAR-3; assay: Growth inhibition of human OVCAR3 cells incubated for 48 hrs by sulforhodamine B assay; assay type: functional; settings: OVCAR-3, 48 h
[33] = system: OVCAR-4; assay: Growth inhibition of human OVCAR4 cells incubated for 48 hrs by sulforhodamine B assay; assay type: functional; settings: OVCAR-4, 48 h
[34] = system: OVCAR-5; assay: Growth inhibition of human OVCAR5 cells incubated for 48 hrs by sulforhodamine B assay; assay type: functional; settings: OVCAR-5, 48 h
[35] = system: OVCAR-8; assay: Growth inhibition of human OVCAR8 cells incubated for 48 hrs by sulforhodamine B assay; assay type: functional; settings: OVCAR-8, 48 h
[36] = system: NCI/ADR-RES; assay: Growth inhibition of human NCI/ADR-RES cells incubated for 48 hrs by sulforhodamine B assay; assay type: functional
[37] = system: SK-OV-3; assay: Growth inhibition of human SKOV3 cells incubated for 48 hrs by sulforhodamine B assay; assay type: functional; settings: SK-OV-3, 48 h
[38] = system: 786-0; assay: Growth inhibition of human 786-O cells incubated for 48 hrs by sulforhodamine B assay; assay type: functional; settings: 786-0, 48 h
[39] = system: A498; assay: Growth inhibition of human A498 cells incubated for 48 hrs by sulforhodamine B assay; assay type: functional; settings: A498, 48 h
[40] = system: ACHN; assay: Growth inhibition of human ACHN cells incubated for 48 hrs by sulforhodamine B assay; assay type: functional
[41] = system: CAKI-1; assay: Growth inhibition of human Caki1 cells incubated for 48 hrs by sulforhodamine B assay; assay type: functional; settings: CAKI-1, 48 h
[42] = system: RXF 393; assay: Growth inhibition of human RXF393 cells incubated for 48 hrs by sulforhodamine B assay; assay type: functional; settings: RXF 393, 48 h
[43] = system: SN12C; assay: Growth inhibition of human SN12C cells incubated for 48 hrs by sulforhodamine B assay; assay type: functional
[44] = system: TK-10; assay: Growth inhibition of human TK10 cells incubated for 48 hrs by sulforhodamine B assay; assay type: functional; settings: TK-10, 48 h
[45] = system: UO-31; assay: Growth inhibition of human UO31 cells incubated for 48 hrs by sulforhodamine B assay; assay type: functional; settings: UO-31, 48 h
[46] = system: PC-3; assay: Growth inhibition of human PC3 cells incubated for 48 hrs by sulforhodamine B assay; assay type: functional; settings: PC-3, 48 h
[47] = system: DU-145; assay: Growth inhibition of human DU145 cells incubated for 48 hrs by sulforhodamine B assay; assay type: functional; settings: DU-145, 48 h
[48] = system: MCF7; assay: Growth inhibition of human MCF7 cells incubated for 48 hrs by sulforhodamine B assay; assay type: functional; settings: MCF7, 48 h
[49] = system: MDA-MB-231; assay: Growth inhibition of human MDA-MB-231 cells incubated for 48 hrs by sulforhodamine B assay; assay type: functional; settings: MDA-MB-231, 48 h
[50] = system: Hs-578T; assay: Growth inhibition of human Hs 578T cells incubated for 48 hrs by sulforhodamine B assay; assay type: functional
[51] = system: BT-549; assay: Growth inhibition of human BT549 cells incubated for 48 hrs by sulforhodamine B assay; assay type: functional; settings: BT-549, 48 h
[52] = system: T47D; assay: Growth inhibition of human T47D cells incubated for 48 hrs by sulforhodamine B assay; assay type: functional
[53] = system: MDA-MB-468; assay: Growth inhibition of human MDA-MB-468 cells incubated for 48 hrs by sulforhodamine B assay; assay type: functional; settings: MDA-MB-468, 48 h
[54] = system: WI-38; assay: Cytotoxicity against human WI38 cells assessed as reduction in cell viability after 24 hrs by MTT assay; assay type: cell-based; settings: WI-38, 24 h
[55] = system: WISH; assay: Cytotoxicity against human WISH cells assessed as reduction in cell viability after 24 hrs by MTT assay; assay type: cell-based
[56] = Antioxidant activity assessed as superoxide dismutase-like activity by measuring inhibition of superoxide radical anion production at 2 uM by NBT reduction assay relative to control; assay type: functional
[57] = system: Escherichia coli; assay: Induction of Escherichia coli genomic DNA cleavage after 1 hr by agarose gel electrophoresis method
[58] = species on record: Homo sapiens; assay: Inhibition of PTK in human MCF7 cells at 1 uM preincubated for 2 hrs followed by poly-Glu-Tyr substrate addition by ELISA relative to control; assay type: cell-based
[59] = Growth inhibition of human NCI60 cells at 10 uM after 48 hrs by SRB assay relative to control; values are per cent of control; settings: NCI60, 48 h

COc1ccc(-c2ccc(-c3ccc(C(=N)N)cc3)s2)cc1
GI50 [1]: 231 nM | GI50 [2]: 282 nM | GI50 [3]: 226 nM | GI50 [4]: 750 nM | GI50 [5]: 2140 nM | GI50 [6]: 665 nM | GI50 [7]: 1240 nM | GI50 [8]: 204 nM | GI50 [9]: 251 nM | GI50 [10]: 224 nM | GI50 [11]: 1330 nM | GI50 [12]: 186 nM | GI50 [13]: 183 nM | GI50 [14]: 196 nM | GI50 [15]: 339 nM | GI50 [16]: 211 nM | GI50 [17]: 1740 nM | GI50 [18]: 1270 nM | GI50 [19]: 160 nM | GI50 [20]: 811 nM | GI50 [21]: 1710 nM | GI50 [22]: 232 nM | GI50 [23]: 198 nM | GI50 [24]: 2170 nM | GI50 [25]: 1410 nM | GI50 [26]: 924 nM | GI50 [27]: 2300 nM | GI50 [28]: 1550 nM | GI50 [29]: 1390 nM | GI50 [30]: 2070 nM | GI50 [31]: 1410 nM | GI50 [32]: 1730 nM | GI50 [33]: 1580 nM | GI50 [34]: 180 nM | GI50 [35]: 321 nM | GI50 [36]: 1490 nM | GI50 [37]: 1960 nM | GI50 [38]: 184 nM | GI50 [39]: 1740 nM | GI50 [40]: 359 nM | GI50 [41]: 1500 nM | GI50 [42]: 1000 nM | GI50 [43]: 189 nM | GI50 [44]: 1970 nM | GI50 [45]: 1670 nM | GI50 [46]: 773 nM | GI50 [47]: 201 nM | GI50 [48]: 175 nM | GI50 [49]: 267 nM | GI50 [50]: 2140 nM | GI50 [51]: 1650 nM | GI50 [52]: 300 nM | GI50 [53]: 192 nM | IC50 [54]: 192000 nM | IC50 [55]: 180000 nM | inhibition [56]: 59.2% | Activity [57]: Dose-dependent effect | inhibition [58]: 19 to 36% | growth percent at 10 µM [59]: -70.7%
